Data: patent US12559504B2, “Benzotriazole derivative” (UBE CORPORATION, priority 2019, dated 2026)

What was measured:
NQO1 [1] = experiment: NQO1 expression induction test in mouse kidney (single administration); type: in vivo; settings: Mus musculus, po, 6 h, BALB/c mouse kidney, 6 hours after administration, ratio to control group
Experimental: Each test compound solution for administration was prepared by dissolving or suspending each test compound into a 0.5 w/v % aqueous solution of methylcellulose (0.5% MC) (manufactured by Wako Pure Chemical Industries, Ltd.).
Each prepared test compound was orally administered to a BALB/c mouse (female, provided by Charles River Laboratories Japan, Inc.). Non-treated group was used as a control group. After 6 hours from the administration, each mouse was anesthetized with isoflurane, and euthanized with bloodletting by incising a lower aorta. Immediately, the left kidney was excised, cut into small pieces, and then the cut kidney pieces were transferred to RNA later (Thermo Fisher Scientific).
Then, mRNA was extracted from the collected kidney pieces by using NucleoSpin (registered trademark) RNA Kit (Takara Bio Inc.), each concentration was quantified by FlexStation3 (Molecular Devices), and then the concentration was adjusted to a constant concentration. A reverse transcription synthesis of cDNA was carried out from the mRNA with the constant concentration by using PrimeScript™ RT reagent Kit with gDNA Eraser and PCR Thermal Cycler (Takara Bio Inc.). Then, in addition to the resulting cDNA, SYBR (registered trademark) Premix Ex Taq™ II and NQO1, GAPDH primer (Takara Bio Inc.) were used to carry out Real-time PCR by PCR Thermal Cycler Dice Real time (Takara Bio Inc.), and the NQO1 expression was quantified by using the GAPDH expression as the reference.
In order to evaluate the NQO1 expression induction in each group, the NQO1 expression induction ratio was calculated by using the following equation. (NQO1 expression induction ratio)=(Average NQO1 expression in test compound administered group)[…](Average NQO1 expression in control group)

[2] = Metabolism test using human liver microsome fractions; type: in vitro ADME; settings: human liver microsomes, test compound 10 μmol/L, NADPH and UDP-glucuronic acid, 37° C.
Experimental: A reaction composition solution (comprising NADPH Regenerating System, Solution A (manufactured by Corning Inc., REF. 451220) (50 μL), NADPH Regenerating System, Solution B (manufactured by Corning Inc., REF. 451200) (10 μL), 250 mM UDP-glucuronic acid (40 μL), UGT Reaction Mix Solution B (manufactured by Corning Inc., REF. 451320) (200 μL), and distilled water (640 μL)) in which human liver microsomes (manufactured by Xenotech, Cat. No. H610) or monkey liver microsomes (manufactured by Xenotech, Cat. No. P2000) (corresponding to 1 mg of protein) were suspended was prepared. After the solution was incubated at 37° C. for 5 minutes, each test compound dissolved into DMSO (manufactured by FUJIFILM Wako Pure Chemical Corporation, Code No. 043-07216) was added to the solution so that the final concentration was set to be 10 μmol/L, and a reaction was initiated. After 0, 5, 10, 15, 20, and 30 minute(s) from the initiation of the metabolism reaction, 100 μL of the reaction solution was taken out of the reaction system, and added to 200 μL of acetonitrile to stop the reaction. After the reaction was completed, the reaction solution was subjected to a work-up such as deproteinization, and then subjected to an UV-HPLC analysis to carry out the following analysis.
The peak area of each test compound was calculated by LabSolution software (Shimadzu Corporation), and the residual ratio (%) at each culture time of test material was calculated by the following equation. Residual ratio (%)=Peak area at each culture time[…]Peak area at 0 (initial time)
Next, the residual amount (nmol/mg/mL) at each culture time of test material was calculated by the following equation. Residual amount (nmol/mg/mL)=Initial concentration of reaction solution (10 nmol/mg/mL)×residual ratio÷100
Finally, a graph in which the reaction time was plotted at horizontal axis and the residual amount was plotted at longitudinal axis was prepared on Excel, and the inclination was calculated as the elimination rate (pmol/min/mg-P) within the time range in which the graph was deemed linear.

[3] = target: T1, GST fusion human Keap1 (amino acid residue: 325-624) protein (Homo sapiens, UniProt Q14145); experiment: Keap1-Nrf2 binding inhibition test (fluorescence polarization); settings: compound concentration of 100 nM; read-out: inhibition rate
T1 construct: GST fusion human Keap1 (amino acid residue: 325-624) protein; purchased Protein tech Ag0779
Experimental: The inhibitory activity of each test compound on the binding between Nrf2 and Keap1 was measured by the fluorescence polarization method. A solution consisting of 20 mM tris-hydrochloride pH7.5 (NIPPON GENE CO., LTD., REF: 318-90225), 150 mM NaCl [FUJIFILM Wako Pure Chemical. Corporation, REF: 191-01665], 0.05% Tween 20 (BioRAD, REF: 161-0781), and 5 mM DTT (FUJIFILM Wako Pure Chemical Corporation, REF: 049-08972) was used as a buffer solution. To a test compound solution (70 μL) adjusted to each concentration with 10% DMSO (FUJIFILM Wako Pure Chemical Corporation, REF: 043-07216) was added a buffer solution (350 μL) comprising 6 nM FITC-labeled Nrf2 peptide (FITC-Ahx-LDEETGEFL-NH2, Invitrogen) and 0.2 mg/mL of BSA (FUJIFILM Wako Pure Chemical Corporation, REF: 017-22231). Each 120 μL of the resulting mixture was dispensed into a black 96 well plate, and a buffer solution (80 μL) comprising 2.5 nM GST fusion human Keap1 (amino acid residue: 325-624) protein (Protein tech, REF: Ag0779) was added thereto. A Keap1-free buffer solution was added to some wells to prepare negative controls. Meanwhile, compound-free wells were used as positive controls. The plate was incubated at room temperature for 30 minutes, and each fluorescence polarization at excitation wavelength of 482 nm and fluorescence wavelength of 530 nm was measured by using a plate reader Clariostar (BMG Labtech). The fluorescence polarization of the negative control was set to be 100% inhibition, fluorescence polarization of the positive control was set to be 0% inhibition, and the inhibition rate of each test compound at 100 nM was calculated by using the following equation. Inhibition rate (%)=100−((Fluorescence polarization when test compound was added−Fluorescence polarization of negative control)/(Fluorescence polarization of positive control−Fluorescence polarization of negative control))×100

NQO1 [4] = experiment: NQO1 enzyme induction test (in vitro) in Hepa1c1c7 cells; type: cell-based; settings: Mus musculus, Hepa-1c1c7, 48 h, concentration to elevate the NQO1 activity by 1.5 times, about 48 hours, read-out: EC150
Experimental: Each NQO1 assay was carried out by modifying a known method (Anal Biochem 1998; 169: 328-, Methods Enzymol 2004; 382: 243-). Hepa1c1c7 cells (mouse hepatocyte line manufacture by DS Pharma Biomedical Co., Ltd., REF. No. 95090613) were cultured (5% CO2, 37° C.). The cells were cultured in MEMα (manufactured by FUJIFILM Wako Pure Chemical Corporation, REF. 135-15175) medium comprising 10% FBS (manufactured by GIBCO, REF. 10082) and […]/streptomycin/amphotericin B (manufactured by GIBCO, REF. 15240), and dispensed into a 96 well plate (manufactured by Costar, REF. 3610) at 2.0×10^3 cells/well. On the next day, test compound (final concentration of […]: 0.1%) dissolved into DMSO (manufactured by FUJIFILM Wako Pure Chemical Corporation, REF. 043-07216) was added to each well, and the plate was further cultured for about 48 hours.
A cell lysate manufactured by Cell signaling Technology, Inc. (REF. 9803) with the addition of a Protease Inhibitor manufactured by Roche Diagnostics K.K. (REF. 11-873580001) was used. A reaction solution (which is a solution comprising trishydrochloric acid (25 mM), albumin […], Tween-20 (0.01%), glucose-6-phosphate dehydrogenase (2 U/mL), flavin-adenine dinucleotide (5 μM), glucose-6-phosphate (1 μM), nicotinamide adenine dinucleotide phosphate (30 μM), 3-(4,5-dimethyl-2-thiazolyl)-2,5-diphenyltetrazolium bromide (MTT) (0.03%), and menadione (50 μM)), and a stop solution (which is a solution comprising dicumarol (0.3 mM) and potassium dihydrogen phosphate (5 mM), pH 7.4) were prepared. After the medium was removed, cell lysate (50 μL) was added thereto, and the resulting mixture was shaken at room temperature for 20 minutes. The reaction solution (200 μL) was added thereto, and the resulting mixture was left to stand at room temperature for 5 minutes. The stop solution (50 μL) was added thereto, and absorbance at 540 nm (reference 750 nm) was measured.
Cell number was measured by Cell Titer Glo assay (manufactured by Promega Corporation, REF. G9242) by using another plate prepared according to the same conditions as those described above, and correction of absorbance was carried out. The test result was analyzed by Excel, and the EC150 value which is the concentration to elevate the NQO1 activity by 1.5 times was calculated.

T1 sequence (Q14145 325-624): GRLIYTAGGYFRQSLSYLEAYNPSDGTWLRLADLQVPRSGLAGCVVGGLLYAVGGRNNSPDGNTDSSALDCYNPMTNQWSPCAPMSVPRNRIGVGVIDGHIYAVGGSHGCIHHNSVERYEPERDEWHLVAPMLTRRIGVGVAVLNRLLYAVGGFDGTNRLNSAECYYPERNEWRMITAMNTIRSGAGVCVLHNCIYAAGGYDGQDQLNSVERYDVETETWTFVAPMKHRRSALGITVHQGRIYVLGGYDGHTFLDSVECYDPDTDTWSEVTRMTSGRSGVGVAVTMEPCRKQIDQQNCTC

Q: Which fold induction at 10 mg/kg (NQO1 [1]) does the source give for CC[C@@H]1CN(Cc2cc(C(c3ccc4c(nnn4C)c3C)C(C)(C)C(=O)O)ccc2C)Cc2cc3cccnc3cc2O1 (single isomer, unassigned) [Example 39] here?
A: Its fold induction at 10 mg/kg is 3 to 6.

Q: And the Human metabolic rate [2]?
A: The Human metabolic rate was “A (metabolic rate<100 pmol/min/mg protein)”.

Q: And the inhibition at 0.1 µM [3]?
A: The inhibition at 0.1 µM was no less than 50%.

Q: With CC[C@@H]1CN(Cc2cc(C(c3ccc4c(nnn4C)c3C)C(C)(C)C(=O)O)ccc2C)Cc2cc3ncccc3cc2O1 (single isomer, unassigned) [Example 41] as the molecule, how does the fold induction at 10 mg/kg (NQO1 [1]) read?
A: Its fold induction at 10 mg/kg is greater than 6.

Q: What about the Human metabolic rate [2] of the same molecule?
A: The Human metabolic rate was “A (metabolic rate<100 pmol/min/mg protein)”.

Q: What about the inhibition at 0.1 µM [3] of the same molecule?
A: The inhibition at 0.1 µM was no less than 50%.

Q: Which fold induction at 10 mg/kg (NQO1 [1]) does the source give for CC[C@@H]1CN(Cc2cc(C(c3ccc4c(nnn4C)c3C)C(C)(C)C(=O)O)ccc2C)Cc2c(ccc3cn[nH]c23)O1 (single isomer, unassigned) [Example 43] here?
A: The fold induction at 10 mg/kg was greater than 6.

Q: What about the Human metabolic rate [2] of the same molecule?
A: Its Human metabolic rate is “A (metabolic rate<100 pmol/min/mg protein)”.

Q: And the inhibition at 0.1 µM [3]?
A: Its inhibition at 0.1 µM is no less than 50%.

Q: Which results are given for CC[C@@H]1CN(Cc2cc(C(c3ccc4c(nnn4C)c3C)C(C)(C)C(=O)O)ccc2C)Cc2ncc3ccccc3c2O1 (single isomer, unassigned) [Example 45]?
A: fold induction at 10 mg/kg (NQO1 [1]): > 6; Human metabolic rate [2]: A (metabolic rate<100 pmol/min/mg protein); inhibition at 0.1 µM [3]: ≥ 50%

Q: For CC[C@@H]1CN(Cc2cc(C(c3ccc4c(nnn4C)c3C)C(C)(C)C(=O)O)ccc2C)Cc2cnc3ccccc3c2O1 (single isomer, unassigned) [Example 47], which fold induction at 10 mg/kg (NQO1 [1]) is on record?
A: Its fold induction at 10 mg/kg is greater than 6.

Q: And the Human metabolic rate [2]?
A: The Human metabolic rate was “B (100≤metabolic rate<150 pmol/min/mg protein)”.

Q: What about the inhibition at 0.1 µM [3] of the same molecule?
A: The inhibition at 0.1 µM was no less than 50%.

Q: Which Human metabolic rate [2] does the source give for Cc1ccc(C(c2ccc3c(nnn3C)c2C)C(C)(C)C(=O)O)cc1CN1Cc2cc3ncccc3cc2OC2(CC2)C1 (single isomer, unassigned) [Example 85, 3-(3-((3′H-spiro[cyclopropane-1,2′-[1,4]oxazepino[7,6-g]quinoline]-4′(5′H)-yl)methyl)-4-methylphenyl)-3-(1,4-dimethyl-1H-benzo[d][1,2,3]triazol-5-yl)-2,2-dimethylpropanoic Acid] here?
A: Its Human metabolic rate is “A (metabolic rate<100 pmol/min/mg protein)”.

Q: What about the EC (1.5-fold NQO1 activity) (NQO1 [4]) of the same molecule?
A: Its EC (1.5-fold NQO1 activity) is 0.0005 to 0.005 µM.

Q: What about the inhibition at 0.1 µM [3] of the same molecule?
A: Its inhibition at 0.1 µM is no less than 50%.

Q: What does the source list for CC[C@@H]1CN(Cc2cc(C(c3ccc4c(nnn4C)c3C)C3(C(=O)O)CCC3)ccc2C)Cc2cc3ncccc3cc2O1 (single isomer, unassigned) [Example 87]?
A: Human metabolic rate [2]: A (metabolic rate<100 pmol/min/mg protein); EC (1.5-fold NQO1 activity) (NQO1 [4]): 0.0005 to 0.005 µM; inhibition at 0.1 µM [3]: ≥ 50%

Q: Which fold induction at 10 mg/kg (NQO1 [1]) does the source give for CC[C@H]1CN(Cc2cc(C(c3ccc4c(nnn4C)c3C)C(C)(C)C(=O)O)ccc2C)Cc2ncc3ccccc3c2O1 (single isomer, unassigned) [Example 89-(b)] here?
A: The fold induction at 10 mg/kg was 3 to 6.

Q: What about the Human metabolic rate [2] of the same molecule?
A: Its Human metabolic rate is “E (metabolic rate≥250 pmol/min/mg protein)”.

Q: What about the inhibition at 0.1 µM [3] of the same molecule?
A: The inhibition at 0.1 µM was no less than 50%.

Q: With CC[C@@H]1CN(Cc2cc(C(c3ccc4c(nnn4C)c3C)C(C)(C)C(=O)O)ccc2C)Cc2c(ccc3c2CCCC3)O1 (stereo partly drawn) [Example 5-(b), 3-(1,4-dimethyl-1H-benzo[d][1,2,3)triazol-5-yl)-3-(3-(((R)-4-ethyl-3,4,8,9,10,11-hexahydronaphtho(1,2-f) (1,4]oxazepin-2(1H)-yl)methyl)-4-methylphenyl)-2,2-dimethylpropanoic Acid] as the molecule, how does the EC (1.5-fold NQO1 activity) (NQO1 [4]) read?
A: Its EC (1.5-fold NQO1 activity) is 0.05 to 0.5 µM.

Q: With CCCC1CN(Cc2cc(C(c3ccc4c(nnn4C)c3C)C(C)(C)C(=O)O)ccc2C)Cc2cc3ncccc3cc2O1 (stereo not shown) [Example 77-(b), 3-(1,4-dimethyl-1H-benzo[d][1,2,3]triazol-5-yl)-2,2-dimethyl-3-(4-methyl-3-((2-propyl-2,3-dihydro-[1,4]oxazepino[7,6-g]quinolin-4 (5H)-yl)methyl)phenyl)propanoic Acid] as the molecule, how does the fold induction at 20 mg/kg (NQO1 [1]; Dose 20 mg/kg) read?
A: Its fold induction at 20 mg/kg is greater than 6.

Q: What about the Human metabolic rate [2] of the same molecule?
A: Its Human metabolic rate is “B (100≤metabolic rate<150 pmol/min/mg protein)”.

Q: What about the inhibition at 0.1 µM [3] of the same molecule?
A: Its inhibition at 0.1 µM is no less than 50%.
